Where “and” joins values, the source holds several entries; their conditions need not be identical. Equal entries are not always repeated. Toxic doses and inconclusive results are not listed.
Test system: BDF1 mice, P388 leukemia ip, median survival T/C
Assay: NCI In Vivo Anticancer Drug Screen. Data for tumor model P388 Leukemia (intraperitoneal) in B6D2F1 (BDF1) mice
Conditions: endpoint: median survival time, higher = longer survival
Procedure, shortened: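 Compound-treated tumour-bearing mice were compared with vehicle-treated controls. Survival was recorded, and the value is the treated-group measurement divided by the control-group measurement (T/C).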

[1] = dose: 100.0 mg/kg/injection, schedule: Q04DX003 (ip), vehicle: saline with Tween-80
[2] = dose: 200.0 mg/kg/injection, schedule: Q04DX003 (ip), vehicle: saline with Tween-80
[3] = dose: 400.0 mg/kg/injection, schedule: Q04DX003 (ip), vehicle: saline with Tween-80
[4] = dose: 100.0 mg/kg/injection, schedule: Q04DX003 (ip), vehicle: Klucel (hydroxypropylcellulose) (HPC)
[5] = dose: 200.0 mg/kg/injection, schedule: Q01DX009 (ip), vehicle: Klucel (hydroxypropylcellulose) (HPC)
[6] = dose: 200.0 mg/kg/injection, schedule: Q04DX003 (ip), vehicle: Klucel (hydroxypropylcellulose) (HPC)
[7] = dose: 400.0 mg/kg/injection, schedule: Q01DX009 (ip), vehicle: Klucel (hydroxypropylcellulose) (HPC)
[8] = dose: 50.0 mg/kg/injection, schedule: Q04DX003 (ip), vehicle: saline with Tween-80
[9] = dose: 50.0 mg/kg/injection, schedule: Q01DX009 (ip), vehicle: saline with Tween-80
[10] = dose: 100.0 mg/kg/injection, schedule: Q01DX009 (ip), vehicle: saline with Tween-80

Structure (SMILES): COC(=O)CNC(=O)C(Cc1ccc(OCc2ccccc2)cc1)NC(=O)OC(C)(C)C (stereo not given)
- T/C [1]: 105 % of control
- T/C [2]: 120 % of control
- T/C [3]: 120 % of control

Structure (SMILES): CC(=O)Nc1ccccc1F
- T/C (dose: 100.0 mg/kg/injection, schedule: Q01DX009 (ip), vehicle: Klucel (hydroxypropylcellulose) (HPC)): 100 % of control
- T/C [4]: 87 % of control
- T/C [5]: 91 % of control
- T/C [6]: 104 % of control
- T/C [7]: 100 % of control

Structure (SMILES): C=CCC(CC)(C(=O)O)C(=O)O
- T/C (dose: 50.0 mg/kg/injection, schedule: Q01DX009 (ip), vehicle: saline): 100 % of control
- T/C (dose: 100.0 mg/kg/injection, schedule: Q01DX009 (ip), vehicle: saline): 90 % of control

Structure (SMILES): O=C(O)/C=C\C(=O)Nc1ccccc1
- T/C (dose: 6.25 mg/kg/injection, schedule: Q01DX009 (ip), vehicle: Klucel (hydroxypropylcellulose) (HPC)): 105 % of control
- T/C (dose: 12.5 mg/kg/injection, schedule: Q01DX009 (ip), vehicle: Klucel (hydroxypropylcellulose) (HPC)): 94 % of control
- T/C (dose: 25.0 mg/kg/injection, schedule: Q01DX009 (ip), vehicle: Klucel (hydroxypropylcellulose) (HPC)): 94 % of control
- T/C (dose: 50.0 mg/kg/injection, schedule: Q01DX009 (ip), vehicle: Klucel (hydroxypropylcellulose) (HPC)): 115 % of control
- T/C [5]: 86 % of control
- T/C [7]: 95 % of control

Structure (SMILES): CCN(CC)c1ccc(/C=C\c2c(C)cnc3ccccc23)cc1
- T/C (dose: 25.0 mg/kg/injection, schedule: Q04DX003 (ip), vehicle: saline with Tween-80): 95 % of control
- T/C [8]: 95 % of control
- T/C [1]: 96 % of control and 110 % of control
- T/C [2]: 97 % of control
- T/C [3]: 97 % of control

Structure (SMILES): BrCC(Br)CBr
- T/C [9]: 104 % of control
- T/C [8]: 100 % of control
- T/C [10]: 122 % of control
- T/C [1]: 100 % of control
- T/C [2]: 104 % of control

Structure (SMILES): S=C(NCCNC(=S)[S][Sn]([c]1ccccc1)([c]1ccccc1)[c]1ccccc1)[S][Sn]([c]1ccccc1)([c]1ccccc1)[c]1ccccc1
- T/C (dose: 3.3 mg/kg/injection, schedule: Q01DX009 (ip), vehicle: saline with Tween-80): 100 % of control
- T/C (dose: 5.0 mg/kg/injection, schedule: Q01DX009 (ip), vehicle: saline with Tween-80): 117 % of control
- T/C (dose: 7.5 mg/kg/injection, schedule: Q01DX009 (ip), vehicle: saline with Tween-80): 108 % of control
- T/C [9]: 115 % of control

Structure (SMILES): C1CNCOC1
- T/C (dose: 25.0 mg/kg/injection, schedule: Q04DX003 (ip), vehicle: saline): 105 % of control
- T/C (dose: 50.0 mg/kg/injection, schedule: Q04DX003 (ip), vehicle: saline): 119 % of control

Structure (SMILES): O=C(NC1CCCCC1)OCC#CC#CCOC(=O)NC1CCCCC1
- T/C [4]: 95 % of control
- T/C [6]: 100 % of control

Structure (SMILES): CC(=O)N1c2ccccc2Sc2ccc3ccc(C(=O)CCl)cc3c21
- T/C [10]: 153 % of control

Structure (SMILES): CCOc1ccc(N2CC(=O)N3CCCN3C(=O)C2)cc1
- T/C (dose: 100.0 mg/kg/injection, schedule: Q01DX005 (ip), vehicle: saline with Tween-80): 88 % of control

Structure (SMILES): S=c1sc(-c2ccc(Cl)cc2)c[se]1
- T/C (dose: 0.78 mg/kg/injection, schedule: Q01DX009 (ip), vehicle: saline with Tween-80): 97 % of control
- T/C (dose: 1.56 mg/kg/injection, schedule: Q01DX009 (ip), vehicle: saline with Tween-80): 109 % of control
- T/C (dose: 3.13 mg/kg/injection, schedule: Q01DX009 (ip), vehicle: saline with Tween-80): 93 % of control and 100 % of control
- T/C (dose: 12.5 mg/kg/injection, schedule: Q01DX009 (ip), vehicle: saline with Tween-80): 93 % of control

Structure (SMILES): COc1cc(-c2nc3ccccc3c(=O)o2)cc(OC)c1OC
- T/C [9]: 105 % of control
- T/C [10]: 115 % of control
- T/C [1]: 100 % of control
- T/C (dose: 200.0 mg/kg/injection, schedule: Q01DX009 (ip), vehicle: saline with Tween-80): 100 % of control
- T/C [2]: 100 % of control
